Data taken from US6610502B1, “Compound 2-amino-3-[2-(α-mannopyranosyl)indol-3-yl]propionic acid, process for preparing the same, and method for inspecting function of living body with the novel compound” (Kyowa Medex Co., Ltd., priority 1997, dated 2003).
“And” between values parts separate entries of the source, which are not always exact repeats. Equal values may be shown once.

Tests used:
Format in all cases: in vivo, human
[1] = Assay of excreted amount in urine: the present compound by enzyme immunoassay (Example 9); settings: healthy persons
Procedure: (§1) Enzyme immunoassay was performed using the antibody prepared in Example 6. First, 50 μl of 2-amino-3-[2-(α-D-mannopyranosyl)indole-3-yl]propionic acid-BSA conjugate solution (20 μg/ml 0.1M carbonate buffer, pH9.5) was dispensed into a 96-well microtiter plate (NUNC. Corp.) and left to stand at 4° C. overnight. After washing the plate three times with PBS, 250 μl of 1% BSA/PBS solution was dispensed into the plate and left to stand at room temperature for 1 hour. Then, the plate was washed three times with PBS to be used as a reaction plate. Next, 50 μl of a test sample diluted with 0.1M phosphate buffer (pH 7.4) supplemented with varied concentrations of 2-amino-3-[2-(α-D-mannopyranosyl)indole-3-yl]propionic acid/0.1%BSA or 0.1M phosphate buffer supplemented with 0.1% BSA (pH7.4) was dispensed into the reaction plate into which 50 μl of the monoclonal antibody prepared in Example 6 (10 ng/ml, 0.1M phosphate buffer solution supplemented with 0.1% BSA, pH7.4) was added while stirring. The mixture was allowed to react at room temperature for 3 hours. Then, after the reaction was completed, the plate was washed five times with PBS containing 0.05% Tween 20, and then 50 μl of POD labeled-anti-mouse immunoglobulins-rabbit IgG (DAKO) was added to the plate for reaction at room temperature for 1 hour. After the reaction, the plate was washed five times with PBS containing 0.05% Tween 20, added with 50 μl of MCDP/50 mM citrate buffer solution (pH5.0), and the mixture was allowed to react at room temperature for 30 minutes. Finally, 50 μl of a reaction stopper (ethyl diethyldithiocarbamate) was added to the plate, and absorbance was then determined at 660 nm by a microplate reader. The calibration curve is shown in FIG. 5 in which the concentration of 2-amino-3-[2-(α-D-mannopyranosyl)indole-3-yl]propionic acid was indicated as a concentration of single compound.
Healthy persons (male and female, from newborn to 90 year-old) were assayed for levels of 2-amino-3-[2-(α-mannopyranosyl)indole-3-yl]propionic acid in their urine as described in Example 7, to evaluate the usefulness of the method of the present invention for measurement of renal functions. Urine samples stored for 24 hours were pooled, their volumes were determined, and then partially stored at −80° C. until use. Upon use, the frozen urine samples were thawed and kept warm at 37° C. Subsequently, after sufficient stirring and mixing, the samples were centrifuged at 3000 rpm for 10 minutes to remove impurities. The resultant supernatants were used as samples. As a comparative example, creatinine levels in the same test samples were assayed.

[2] = Quantitation of the compound in cerebrospinal fluid by high performance liquid chromatography (Example 4)
Procedure: (§2) Standard solution of 2-amino-3-[2-(α-mannopyranosyl)indole-3-yl]propionic acid obtained in Example 1 above was prepared. Next, 350 μl of the standard solution was added to 500 μl of 0.1N hydrochloric acid containing 1% vitamin C, mixed with 50 μl of 40 μM N-methyl serotonin as an internal standard then 100 μl of 60% perchloric acid, and centrifuged at 3000 rpm at 4° C. The supernatant was filtered through a 0.22 μm filter to obtain a filtrate.
(§3) The filtrate was subjected to high performance liquid chromatography under the following conditions:
(§4) Sera and cerebrospinal fluids from healthy persons and patients with central nervous disease were quantitated for the compound of the present invention. Both sera and cerebrospinal fluids were collected from 22 healthy persons, one patient with spinocerebellar ataxia and one patient with metastatic brain tumor, and quantitated for the compound of the present invention in the sera and the cerebrospinal fluids in the same manner as that of Example 2 except that sera or cerebrospinal fluids were used instead of the standard solution. […] The result of quantitation of the compound in cerebrospinal fluids is shown in FIG. 3 in which ●, □ and Δ show the healthy persons, the patient with spinocerebellar ataxia, and the patient with metastatic brain tumor, respectively. As shown in this figure, the level of the compound in cerebrospinal fluids from healthy persons was determined to be 130.4 ng/ml (SD 29.1). The level of the compound in cerebrospinal fluid from the patient with spinocerebellar ataxia was determined to be 399.4 ng/ml. The level of the compound in cerebrospinal fluid from the patient with metastatic brain tumor was determined to be 822.6 ng/ml.

[3] = Quantitation of the compound in serum by high performance liquid chromatography (Examples 3, 4); settings: for level in serum: healthy persons, newborns to 90-year-old
Procedure: as §2, §3
Column: Finepak SILC18-T5 (4 mm×25 cm, JASCO Corporation)
Development solvent: Mixed solvent of acetonitrile and buffer (70 mM citric acid: 60 mM disodium phosphate=1;1, v/v, pH3.5)
Detection: Fluorescence, excited at 302 nm, determined at 350 nm
Sera from healthy persons and patients with renal disease were quantitated for the compound of the present invention. First, bloods were collected from the subjects and left to stand at room temperature for 30 minutes for coagulation. Next, the sera were collected by centrifugation at 3000 rpm for 10 minutes and stored at −80° C. until use. Sera from healthy persons (males and females, newborns to 90-year-old persons) were quantitated for the compound of the present invention in the same manner as that of Example 2 except that sera were used instead of the standard solution. […] No difference was detected between ages or between sexes.
Next, sera from patients with renal disease (17 males, average age of 53.9; 13 females, average age of 46.4) were quantitated for the compound of the present invention. […] As shown in this figure, the average value of 856 ng/ml (SD 247) was obtained for samples from male patients while 854 ng/ml (SD 305) for samples from female patients.
as §4

[4] = GFR assay: the present compound in urine and sera by enzyme immunoassay, clearance (Example 8)
Procedure: as §1
Eighteen patients with non-renal disease were assayed for the levels of 2-amino-3-[2-(α-mannopyranosyl)indole-3-yl]propionic acid in their urine and sera as described in Example 7. Urine samples stored for 24 hours were used. Volumes of those samples were determined and then partially stored at −80° C. until assay. Upon use, the frozen urine samples were thawed at 37° C. and kept warm. Subsequently, after sufficient stirring and mixing, the samples were centrifuged at 3000 rpm for 10 minutes to remove impurities. The resultant supernatants were used as samples. Serum samples were collected from the patients' blood, left to stand at room temperature for 30 minutes for coagulation, and centrifuged to collect sera which were stored at −80° C. until use.
Clearance View=(level in urine×urine volume)/(24×60×serum level)

## NC(Cc1c([C@H]2O[C@H](CO)[C@@H](O)[C@H](O)[C@@H]2O)[nH]c2ccccc12)C(=O)O (stereo partly drawn) [the present compound, 2-amino-3-[2-(α-mannopyranosyl)indole-3-yl]propionic acid]
[1]; female, age 0-10
  excreted amount in urine, average: 4111 µg/day
[1]; female, age 0-90
  excreted amount in urine, average: 4507 µg/day
[1]; female, age 10-30
  excreted amount in urine, average: 4520 µg/day
[1]; female, age 30-50
  excreted amount in urine, average: 4824 µg/day
[1]; female, age 50-70
  excreted amount in urine, average: 4412 µg/day
[1]; female, age 70-90
  excreted amount in urine, average: 4666 µg/day
[1]; male and female, all ages
  average excretion amount per day: 4.5 mg/day
[1]; male, age 0-10
  excreted amount in urine, average: 4095 µg/day
[1]; male, age 0-90
  excreted amount in urine, average: 4488 µg/day
[1]; male, age 10-30
  excreted amount in urine, average: 4581 µg/day
[1]; male, age 30-50
  excreted amount in urine, average: 4498 µg/day
[1]; male, age 50-70
  excreted amount in urine, average: 4647 µg/day
[1]; male, age 70-90
  excreted amount in urine, average: 4622 µg/day
[2]; healthy persons (n=22)
  range of levels in cerebrospinal fluids from 99% of subjects: 72 to 188 ng/mL
[2]; healthy persons (n=22), SD 29.1
  level in cerebrospinal fluids: 130.4 ng/mL
[2]; one patient with metastatic brain tumor
  level in cerebrospinal fluid: 822.6 ng/mL
[2]; one patient with spinocerebellar ataxia
  level in cerebrospinal fluid: 399.4 ng/mL
[2]; patients with spinocerebellar ataxia or metastatic brain tumor
  levels in cerebrospinal fluids: ≥ 400 ng/mL
[3]; female patients with renal disease (13 females), SD 305
  level in serum, average value: 854 ng/mL
[3]; healthy persons (n=50)
  range of levels in sera from 99% of subjects: 52 to 99 ng/mL
[3]; females, SD 12.6
  level in serum: 74.5 ng/mL
[3]; males, SD 10.3
  level in serum: 76.3 ng/mL
[3]; male patients with renal disease (17 males), SD 247
  level in serum, average value: 856 ng/mL
[3]; patients with renal dysfunction (n=30)
  range of levels in sera from 99% of subjects: 307 to 1403 ng/mL
[3]; sera of Example 4 subjects, SD 13.8
  level in sera: 69.9 ng/mL
[4]; Average of 18 subjects
  clearance (ml/min) the present compound: 68.40 mL/min
  the present compound in serum: 0.24 nmol/mL
  the present compound in urine: 14.87 nmol/mL
[4]; individual subjects 1-18, patients with non-renal disease
  the present compound in serum: 0.240 nmol/ml (2×) and 0.193 nmol/ml (3×) and 0.166 nmol/ml and 0.280 nmol/ml and 0.200 nmol/ml and 0.319 nmol/ml (3×) and 0.279 nmol/ml (2×) and 0.186 nmol/ml and 0.309 nmol/ml and 0.213 nmol/ml and 0.226 nmol/ml and 0.159 nmol/ml
[4]; individual subjects 1-18, urine stored for 24 hours
  the present compound in urine: 11.677 nmol/mL and 7.195 nmol/mL and 4.242 nmol/mL and 14.862 nmol/mL and 19.188 nmol/mL and 7.595 nmol/mL and 10.649 nmol/mL and 14.349 nmol/mL and 13.645 nmol/mL and 27.103 nmol/mL and 16.348 nmol/mL and 12.726 nmol/mL and 11.931 nmol/mL and 26.935 nmol/mL and 15.040 nmol/mL and 12.989 nmol/mL and 33.653 nmol/mL and 7.573 nmol/mL
[4]; individual subjects 1-18, (level in urine×urine volume)/(24×60×serum level)
  clearance (ml/min) the present compound: 64.2 mL/min and 54.2 mL/min and 58.1 mL/min and 80.8 mL/min and 64.3 mL/min and 53.0 mL/min and 72.3 mL/min and 60.7 mL/min and 91.7 mL/min and 56.1 mL/min and 89.1 mL/min and 61.9 mL/min and 89.2 mL/min and 77.6 mL/min and 67.7 mL/min and 65.3 mL/min and 52.8 mL/min
